Test results taken from patent publication US10577363B2, “Substituted piperidine compounds” (EPIZYME, INC., priority 2014, dated 2020).

Assays:
SMYD3 [1] = molecular target: T1, SMYD3 (Homo sapiens (Human), UniProt Q9H7B4); assay: SMYD3 cell assay (Trimethyl-MEKK2 In-Cell Western in 293T/17 cells); type: cell-based
Method in brief: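 In-Cell Western readout: methanol-fixed cells stained for trimethyl-MEKK2 and flag tag, ratio per well normalized to DMSO and background controls.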

SMYD3 [2] = molecular target: T1, SMYD3; assay: SMYD3 biochemical assay (SPA, 3H-SAM methylation of MEKK2 protein substrate); details: read-out: SMYD3 Biochem IC50 (μM)*
Method in brief: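 Methylation of N-terminally GST-tagged MEKK2 by untagged full-length human SMYD3, using 3H-SAM, in pH 8.0 Tris buffer with TCEP, BSG and Tween 20; enzyme and compound sat 30 min at room temperature before substrate addition. Stopped with 100 uM (final) cold SAM; incorporation read by scintillation proximity as dpm/cpm.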

[3] = 293T/17 cells, read-out: SMYD3 Cell IC50 (μM)*

T1 sequence (Q9H7B4 whole entry): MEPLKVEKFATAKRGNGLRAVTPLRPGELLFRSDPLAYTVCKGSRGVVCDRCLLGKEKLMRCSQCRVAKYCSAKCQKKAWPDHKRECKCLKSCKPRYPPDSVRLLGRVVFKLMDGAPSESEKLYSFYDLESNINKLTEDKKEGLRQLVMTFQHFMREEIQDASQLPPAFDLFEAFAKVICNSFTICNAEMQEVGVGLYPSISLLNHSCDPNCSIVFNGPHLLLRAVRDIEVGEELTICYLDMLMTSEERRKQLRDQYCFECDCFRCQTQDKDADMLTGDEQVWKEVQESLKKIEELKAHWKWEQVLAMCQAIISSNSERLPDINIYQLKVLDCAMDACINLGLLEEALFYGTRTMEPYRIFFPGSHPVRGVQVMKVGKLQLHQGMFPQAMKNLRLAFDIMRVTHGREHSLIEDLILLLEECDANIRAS

| Structure (SMILES) | IC50 (SMYD3 [1]; [3]) | IC50 (SMYD3 [2]) | IC50 (SMYD3 [1]) |
| --- | --- | --- | --- |
| O=C(N[C@@H]1CCN(C(=O)CC2CCNCC2)[C@H](Cc2ccccc2)C1)c1cc(C2CC2)on1 [compound 349, N-((2R,4R)-2-benzyl-1-(2-(piperidin-4-yl)acetyl)piperidin-4-yl)-5-cyclopropylisoxazole-3-carboxamide] | > 40 µM | 2.27 µM |  |
| C[C@H](C(=O)N1CC[C@H](NC(=O)c2cc(C3CC3)on2)C[C@@H]1C)C1CCNCC1 [compound 360, 5-cyclopropyl-N-((2S,4S)-2-methyl-1-((S)-2-(piperidin-4-yl)propanoyl)piperidin-4-yl)isoxazole-3-carboxamide] | 8.28 µM | 0.792 µM |  |
| CC(=O)Nc1ccc(S(=O)(=O)N2CC[C@@H](NC(=O)c3cc(C4CC4)on3)C[C@@H]2C)cc1 [compound 377, N-((2S,4R)-1-((4-acetamidophenyl)sulfonyl)-2-methylpiperidin-4-yl)-5-cyclopropylisoxazole-3-carboxamide] | 27.6 µM | > 10 µM |  |
| CC(=O)Nc1ccc(S(=O)(=O)N2CC[C@H](NC(=O)c3cc(C4CC4)on3)C[C@@H]2C)cc1 [compound 378, N-((2S,4S)-1-((4-acetamidophenyl)sulfonyl)-2-methylpiperidin-4-yl)-5-cyclopropylisoxazole-3-carboxamide] | 2.74 µM | 0.577 µM |  |
| CC(C)CN(C)c1ccc(S(=O)(=O)N2CC[C@H](NC(=O)c3cc(C4CC4)on3)C[C@@H]2C)cn1 [compound 381, 5-cyclopropyl-N-((2S,4S)-1-((6-(isobutyl(methyl)amino)pyridin-3-yl)sulfonyl)-2-methylpiperidin-4-yl)isoxazole-3-carboxamide] | > 40 µM | > 10 µM |  |
| C[C@H]1CN(S(=O)(=O)CCCN)CC[C@@H]1NC(=O)c1cc(C2CC2)on1 [compound 385, N-((3S,4S)-1-((3-aminopropyl)sulfonyl)-3-methylpiperidin-4-yl)-5-cyclopropylisoxazole-3-carboxamide] |  | 0.0882 µM | 1.23 µM |
| C[C@@H]1CN(S(=O)(=O)CCCN)CC[C@@H]1NC(=O)c1cc(C2CC2)on1 [compound 387, N-((3R,4S)-1-((3-aminopropyl)sulfonyl)-3-methylpiperidin-4-yl)-5-cyclopropylisoxazole-3-carboxamide] |  | 0.07 µM | 0.788 µM |
| NCCCS(=O)(=O)N1CC[C@@H](NC(=O)c2cc(C3CC3)on2)C[C@H]1Cc1ccccc1 [compound 390, N-((2R,4R)-1-((3-aminopropyl)sulfonyl)-2-benzylpiperidin-4-yl)-5-cyclopropylisoxazole-3-carboxamide] | 2.97 µM | 0.464 µM |  |
| C[C@H]1C[C@@H](NC(=O)c2cc(C3CC3)on2)CCN1C(=O)CC1(CN)CCCCC1 [compound 391, N-((2S,4S)-1-(2-(1-(aminomethyl)cyclohexyl)acetyl)-2-methylpiperidin-4-yl)-5-cyclopropylisoxazole-3-carboxamide] | > 10 µM | 5.72 µM |  |
| NCCS(=O)(=O)N1[C@@H]2CC[C@H]1C[C@H](NC(=O)c1cc(C3CC3)on1)C2 [compound 395, N-((1R,3s,5S)-8-((2-aminoethyl)sulfonyl)-8-azabicyclo[3.2.1]octan-3-yl)-5-cyclopropylisoxazole-3-carboxamide] | 3.16 µM | 0.611 µM |  |
| NCCS(=O)(=O)N1[C@@H]2CC[C@H]1C[C@@H](NC(=O)c1cc(C3CC3)on1)C2 [compound 396, N-((1R,3r,5S)-8-((2-aminoethyl)sulfonyl)-8-azabicyclo[3.2.1]octan-3-yl)-5-cyclopropylisoxazole-3-carboxamide] | 0.375 µM | 0.0417 µM |  |
| CC(=O)Nc1ccc(S(=O)(=O)N2CC[C@H](NC(=O)c3cc(C4CC4)on3)C[C@H]2C)cc1 [compound 397, N-((2R,4S)-1-((4-acetamidophenyl)sulfonyl)-2-methylpiperidin-4-yl)-5-cyclopropylisoxazole-3-carboxamide] | > 10 µM | > 10 µM |  |
| O=C(N[C@@H]1C[C@H]2CC[C@@H](C1)N2S(=O)(=O)c1ccccc1)c1cc(C2CC2)on1 [compound 399, 5-cyclopropyl-N-((1R,3s,5S)-8-(phenylsulfonyl)-8-azabicyclo[3.2.1]octan-3-yl)isoxazole-3-carboxamide] | 2.87 µM | 0.833 µM |  |
| O=C(N[C@H]1C[C@H]2CC[C@@H](C1)N2S(=O)(=O)c1ccccc1)c1cc(C2CC2)on1 [compound 400, 5-cyclopropyl-N-((1R,3r,5S)-8-(phenylsulfonyl)-8-azabicyclo[3.2.1]octan-3-yl)isoxazole-3-carboxamide] | > 10 µM | 4.13 µM |  |
| O=C(NC1CC2CCCC(C1)N2S(=O)(=O)c1ccccc1)c1cc(C2CC2)on1 (stereo not drawn) [compound 401, 5-cyclopropyl-N-(9-(phenylsulfonyl)-9-azabicyclo[3.3.1]nonan-3-yl)isoxazole-3-carboxamide] | 2.95 µM | 0.793 µM |  |
| CC(=O)Nc1ccc(S(=O)(=O)N2C3CCCC2CC(NC(=O)c2cc(C4CC4)on2)C3)cc1 (stereo not drawn) [compound 402, N-(9-((4-acetamidophenyl)sulfonyl)-9-azabicyclo[3.3.1]nonan-3-yl)-5-cyclopropylisoxazole-3-carboxamide] | > 10 µM | 4.92 µM |  |

The next lines start with results.

| IC50 (SMYD3 [1]; [3]) | IC50 (SMYD3 [2]) | Structure (SMILES) | IC50 (SMYD3 [1]) |
| --- | --- | --- | --- |
| 1.62 µM | 0.0541 µM | NCCCC(=O)N1CC[C@H](NC(=O)c2cc(C3CC3)on2)C[C@@H]1Cc1ccccc1 [compound 336, N-((2S,4S)-1-(4-aminobutanoyl)-2-benzylpiperidin-4-yl)-5-cyclopropylisoxazole-3-carboxamide] |  |
| 13 µM | 0.961 µM | C[C@H]1C[C@@H](NC(=O)c2cc(C3CC3)on2)CCN1C(=O)CC(C)(C)CN [compound 337, N-((2S,4S)-1-(4-amino-3,3-dimethylbutanoyl)-2-methylpiperidin-4-yl)-5-cyclopropylisoxazole-3-carboxamide] |  |
| > 40 µM | > 10 µM | C[C@H]1C[C@@H](NC(=O)c2cc(C3CC3)on2)CCN1C(=O)c1ccc2[nH]cnc2c1 [compound 340, N-((2S,4S)-1-(1H-benzo[d]imidazole-5-carbonyl)-2-methylpiperidin-4-yl)-5-cyclopropylisoxazole-3-carboxamide] |  |
| 6.01 µM | 1 µM | C[C@@H]1C[C@H](NC(=O)c2cc(C3CC3)on2)CCN1C(=O)c1ccc2[nH]cnc2c1 [compound 341, N-((2R,4R)-1-(1H-benzo[d]imidazole-5-carbonyl)-2-methylpiperidin-4-yl)-5-cyclopropylisoxazole-3-carboxamide] |  |
| 7.83 µM | 3.09 µM | C[C@@H]1C[C@H](NC(=O)c2cc(C3CC3)on2)CCN1S(=O)(=O)c1ccccc1 [compound 351, 5-cyclopropyl-N-((2R,4R)-2-methyl-1-(phenylsulfonyl)piperidin-4-yl)isoxazole-3-carboxamide] |  |
| 0.996 µM | 0.152 µM | C[C@H]1C[C@@H](NC(=O)c2cc(C3CC3)on2)CCN1S(=O)(=O)c1ccccc1 [compound 352, 5-cyclopropyl-N-((2S,4S)-2-methyl-1-(phenylsulfonyl)piperidin-4-yl)isoxazole-3-carboxamide] |  |
| 5.65 µM | 1.14 µM | C[C@@H]1C[C@H](NC(=O)c2cc(C3CC3)on2)CCN1S(=O)(=O)c1cccc(C#N)c1 [compound 354, N-((2R,4R)-1-((3-cyanophenyl)sulfonyl)-2-methylpiperidin-4-yl)-5-cyclopropylisoxazole-3-carboxamide] |  |
| 13.6 µM | 1.36 µM | C[C@@H](C(=O)N1CC[C@H](NC(=O)c2cc(C3CC3)on2)C[C@@H]1C)C1CCNCC1 [compound 361, 5-cyclopropyl-N-((2S,4S)-2-methyl-1-((R)-2-(piperidin-4-yl)propanoyl)piperidin-4-yl)isoxazole-3-carboxamide] |  |
| 3.88 µM | 0.454 µM | C[C@@H]1C[C@H](NC(=O)c2cc(C3CC3)on2)CCN1C(=O)c1cccc(C(C)(C)N)c1 [compound 365, N-((2R,4R)-1-(3-(2-aminopropan-2-yl)benzoyl)-2-methylpiperidin-4-yl)-5-cyclopropylisoxazole-3-carboxamide] |  |
| 30.6 µM | 4.29 µM | C[C@H]1C[C@@H](NC(=O)c2cc(C3CC3)on2)CCN1C(=O)c1cccc(C(C)(C)N)c1 [compound 367, N-((2S,4S)-1-(3-(2-aminopropan-2-yl)benzoyl)-2-methylpiperidin-4-yl)-5-cyclopropylisoxazole-3-carboxamide] |  |
| 1.04 µM | 0.122 µM | C[C@@H]1C[C@H](NC(=O)c2cc(C3CC3)on2)CCN1C(=O)c1ccc(C(C)(C)N)cc1 [compound 368, N-((2R,4R)-1-(4-(2-aminopropan-2-yl)benzoyl)-2-methylpiperidin-4-yl)-5-cyclopropylisoxazole-3-carboxamide] |  |
| > 40 µM | 4.39 µM | C[C@H]1C[C@@H](NC(=O)c2cc(C3CC3)on2)CCN1C(=O)c1ccc(C(C)(C)N)cc1 [compound 370, N-((2S,4S)-1-(4-(2-aminopropan-2-yl)benzoyl)-2-methylpiperidin-4-yl)-5-cyclopropylisoxazole-3-carboxamide] |  |
| 29.8 µM | 2.47 µM | C[C@H]1C[C@@H](NC(=O)c2cc(C3CC3)on2)CCN1C(=O)C1CCCC(CN)C1 (stereo partly drawn) [compound 373, N-((2S,4S)-1-(3-(aminomethyl)cyclohexane-1-carbonyl)-2-methylpiperidin-4-yl)-5-cyclopropylisoxazole-3-carboxamide] |  |
| 1.21 µM | 0.212 µM | C[C@H]1C[C@@H](NC(=O)c2cc(C3CC3)on2)CCN1S(=O)(=O)c1cccc(C#N)c1 [compound 398, N-((2S,4S)-1-((3-cyanophenyl)sulfonyl)-2-methylpiperidin-4-yl)-5-cyclopropylisoxazole-3-carboxamide] |  |
